Measured values published in patent USRE30241E, “Esters of 3-(hydroxy or hydroxymethyl)-4-hydroxyphenyl aminomethyl ketones” (Sterling Drug Inc., priority 1970, dated 1980).
Like-named read-outs stand apart in the source and are kept apart here.

Columns and labels:
[1] = tested on: carbachol- or histamine-induced bronchoconstriction; test: Bronchodilator Test Method I, anesthetized dog, intravenous activity; type: in vivo; settings: Canis lupus familiaris, read-out: Bronchodilatation; for inhibition in vivo at 0.0013 mg/kg: 1.3 mcg/kg i.v.; for inhibition in vivo at 0.0065 mg/kg: 6.5 mcg/kg i.v.; for inhibition in vivo at 0.0325 mg/kg: 32.5 mcg/kg i.v.; for inhibition in vivo at 0.00025 mg/kg: 0.25 mcg/kg i.v.; for inhibition in vivo at 0.001 mg/kg: 1 mcg/kg i.v.; for inhibition in vivo at 0.004 mg/kg: 4 mcg/kg i.v.; for inhibition in vivo at 0.008 mg/kg: 8 mcg/kg i.v.; for inhibition in vivo at 0.032 mg/kg: 32 mcg/kg i.v.; for inhibition in vivo at 0.128 mg/kg: 128 mcg/kg i.v.
Summary of the method: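 Pentobarbital-anesthetized (30 mg/kg i.v.), open-chest, artificially ventilated dogs were given i.v. carbachol (4-6 µg/kg) or histamine diphosphate (35-45 µg/kg). Test compound was given i.v. mixed with, after, or 1-10 min before the constrictor.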

heart rate = test: Cardiovascular studies: effect on the heart rate in the anesthetized dog; type: in vivo
Protocol: The effect of a rapid intravenous injection on the heart rate the heart rate was conducted in anesthetized dogs under normal respiration. A few open-chest dogs were also tested. Increase in heart rate was measured by using an electrocardiograph attached to the dog. Readings were taken every 0.5-1 minute for the first 10 minutes and every 2-5 minutes thereafter until recovery. In some cases, several doses and more than one compound were tested alternately in the same dog. The blood pressure effect was simultaneously recorded.

[2] = tested on: carbachol- or histamine-induced bronchoconstriction; test: Bronchodilator Test Method I, anesthetized dog, intraduodenal activity; type: in vivo; settings: Canis lupus familiaris, read-out: Bronchodilation; for inhibition in vivo at 0.025 mg/kg: 25 mcg/kg (salt) intraduodenal; for inhibition in vivo at 0.05 mg/kg: 50 mcg/kg (salt) intraduodenal; for inhibition in vivo at 0.032 mg/kg: 32 mcg/kg (salt) intraduodenal; for inhibition in vivo at 0.128 mg/kg: 128 mcg/kg (salt) intraduodenal
Protocol: Male and female dogs weighing 9-18 kg. each were anesthetized with pentobarbital sodium (30 mg./kg. i.v.). Each animal, with thorax opened at the midsternum, was maintained under artificial ventilation using a constant volume pump (250 ml./stroke; 10 to 12 strokes per minute) attached to the tracheal cannula. The flow of air was controlled by a glass or plastic valve which closed and opened respectively on inflow and outflow of the air to and from the tracheal cannula. Bronchoconstriction and/or bronchodilatation were measured from changes in the basal airway pressure reflected by a transducer attached to the sidearm of the cannula relayed to a polygraph.
Control bronchoconstrictions were induced by intravenous injections of carbachol (choline chloride carbamate) in doses ranging from 4 to 6 micrograms per kilogram or histamine diphosphate in doses ranging from 35 to 45 micrograms per kilogram. In the majority of test animals, the above doses of constrictor agents produced a 100-200 percent increase in the normal airway pressure or amplitude.
Injections were repeated at 20-30 minutes.
In intraduodenal studies, in the dog prepared for bronchodilation measurements, the duodenal segment of the small intestine was made easily accessible through a small mid-line incision in the abdomen. The test solution was injected into the duodenum using a fine needle. Commencing 5 minutes after medication, the degree and duration of bronchodilation were tested by injecting a control dose of carbachol or histamine at intervals of 30-60 minutes until the recovery or near-recovery was apparent. In some dogs showing an early recovery, a reference drug was also tested in the same dog 1.5-2 hours after the first medicine.

[3] = tested on: guinea pig bronchioles constricted by carbachol; test: Bronchodilator Test Method II, in vitro perfused guinea pig lung
Protocol: In this method bronchodilator activity in vitro was determined by testing the effect of graded doses of the test compounds on guinea pig bronchioles constricted by carbachol, using the technique reported by Sollman and von Oettingen, Proc. Soc, Exp. Biol. Med., 25,692 (1928) as modified by Tainter, Pedden, and James, J. Pharm. Exp. Ther., 51, 371 (1934) and by Luduena, von Euler, Tullar, and Lands, Arch. intern. Pharmacol., III, 392 (1957).

SMILES: CC(=O)Oc1ccc(C(O)CNC(C)(C)C)cc1OC(=O)C12CC3CC(CC(C3)C1)C2 (stereo not drawn) [Example 148, 3-(1-adamantanecarbonyloxy)-4-acetoxy-alpha-(tert-butylaminomethyl)benzyl alcohol methanesulfonate]
- inhibition in vivo at 0.0013 mg/kg ([1]; 5 min, 5 min): 21%
- inhibition in vivo at 0.0065 mg/kg ([1]; 5 min, 5 min): 47%
- inhibition in vivo at 0.0325 mg/kg ([1]; 5 min, 5 min): 95%
- inhibition in vivo at 0.0013 mg/kg ([1]; 0.5 h, 30 min): 1%
- inhibition in vivo at 0.0065 mg/kg ([1]; 0.5 h, 30 min): 30%
- inhibition in vivo at 0.0325 mg/kg ([1]; 0.5 h, 30 min): 66%
- inhibition in vivo at 0.0013 mg/kg ([1]; 1 h, 60 min): 10%
- inhibition in vivo at 0.0065 mg/kg ([1]; 1 h, 60 min): 23%
- inhibition in vivo at 0.0325 mg/kg ([1]; 1 h, 60 min): 54%
- inhibition in vivo at 0.0013 mg/kg ([1]; 2 h, 120 min): 16%
- inhibition in vivo at 0.0065 mg/kg ([1]; 2 h, 120 min): 15%
- inhibition in vivo at 0.0325 mg/kg ([1]; 2 h, 120 min): 39%
- inhibition in vivo at 0.0065 mg/kg ([1]; 3 h, 180 min): 13%
- inhibition in vivo at 0.0325 mg/kg ([1]; 3 h, 180 min): 28%
- inhibition in vivo at 0.0325 mg/kg ([1]; 4 h, 240 min): 14%
- Mean Maximal Increase in the Heart Rate (heart rate; 6.5 mcg/kg (salt) i.v.): 32 Beats/Minute
- Mean Maximal Increase in the Heart Rate (heart rate; 32.5 mcg/kg (salt) i.v.): 58 Beats/Minute

SMILES: CC(C)(C)NCC(O)c1ccc(O)c(CO)c1 (stereo not drawn) [Ref. Cpd. III, 3-Hydroxymethyl-4-hydroxy-alpha-(tert-butylaminomethyl)benzyl alcohol, reference compound]
- inhibition in vivo at 0.00025 mg/kg ([1]; 5 min, 5 min): 18%
- inhibition in vivo at 0.001 mg/kg ([1]; 5 min, 5 min): 31%
- inhibition in vivo at 0.004 mg/kg ([1]; 5 min, 5 min): 65%
- inhibition in vivo at 0.00025 mg/kg ([1]; 0.5 h, 30 min): 0%
- inhibition in vivo at 0.001 mg/kg ([1]; 0.5 h, 30 min): 14%
- inhibition in vivo at 0.004 mg/kg ([1]; 0.5 h, 30 min): 24%
- inhibition in vivo at 0.001 mg/kg ([1]; 1 h, 60 min): 3%
- inhibition in vivo at 0.004 mg/kg ([1]; 1 h, 60 min): 18%
- inhibition in vivo at 0.004 mg/kg ([1]; 2 h, 120 min): 0%
- inhibition in vivo at 0.025 mg/kg ([2]; 10 min, 10 min): 45%
- inhibition in vivo at 0.05 mg/kg ([2]; 10 min, 10 min): 13%
- inhibition in vivo at 0.05 mg/kg ([2]; 0.5 h, 30 min): 42%
- inhibition in vivo at 0.025 mg/kg ([2]; 1 h, 60 min): 51%
- inhibition in vivo at 0.05 mg/kg ([2]; 1 h, 60 min): 56%
- inhibition in vivo at 0.025 mg/kg ([2]; 2 h, 120 min): 43%
- inhibition in vivo at 0.05 mg/kg ([2]; 2 h, 120 min): 71%
- inhibition in vivo at 0.025 mg/kg ([2]; 3 h, 180 min): 0%
- inhibition in vivo at 0.05 mg/kg ([2]; 3 h, 180 min): 53%
- inhibition in vivo at 0.05 mg/kg ([2]; 4 h, 240 min): 34%
- inhibition in vivo at 0.05 mg/kg ([2]; 5 h, 300 min): 6%
- Mean Maximal Increase in the Heart Rate (heart rate; 0.25 mcg/kg (salt) i.v.): 9 Beats/Minute
- Mean Maximal Increase in the Heart Rate (heart rate; 1 mcg/kg (salt) i.v.): 15 Beats/Minute
- Mean Maximal Increase in the Heart Rate (heart rate; 4 mcg/kg (salt) i.v.): 34 Beats/Minute

SMILES: CC(=O)OCc1cc(C(O)CNC(C)(C)C)ccc1OC(=O)c1ccc(C)cc1 (stereo not drawn) [Example 150, 3-acetoxymethyl-4-(p-toluyloxy)-alpha-(tert-butylaminomethyl)benzyl alcohol methanesulfonate]
- inhibition in vivo at 0.008 mg/kg ([1]; 5 min, 5 min): 42%
- inhibition in vivo at 0.032 mg/kg ([1]; 5 min, 5 min): 64%
- inhibition in vivo at 0.128 mg/kg ([1]; 5 min, 5 min): 85%
- inhibition in vivo at 0.008 mg/kg ([1]; 0.5 h, 30 min): 37%
- inhibition in vivo at 0.032 mg/kg ([1]; 0.5 h, 30 min): 66%
- inhibition in vivo at 0.128 mg/kg ([1]; 0.5 h, 30 min): 87%
- inhibition in vivo at 0.008 mg/kg ([1]; 1 h, 60 min): 44%
- inhibition in vivo at 0.032 mg/kg ([1]; 1 h, 60 min): 54%
- inhibition in vivo at 0.128 mg/kg ([1]; 1 h, 60 min): 67%
- inhibition in vivo at 0.008 mg/kg ([1]; 2 h, 120 min): 44%
- inhibition in vivo at 0.032 mg/kg ([1]; 2 h, 120 min): 40%
- inhibition in vivo at 0.128 mg/kg ([1]; 2 h, 120 min): 60%
- inhibition in vivo at 0.008 mg/kg ([1]; 3 h, 180 min): 32%
- inhibition in vivo at 0.032 mg/kg ([1]; 3 h, 180 min): 30%
- inhibition in vivo at 0.128 mg/kg ([1]; 3 h, 180 min): 52%
- inhibition in vivo at 0.008 mg/kg ([1]; 4 h, 240 min): 20%
- inhibition in vivo at 0.032 mg/kg ([1]; 4 h, 240 min): 0%
- inhibition in vivo at 0.128 mg/kg ([1]; 4 h, 240 min): 24%
- inhibition in vivo at 0.032 mg/kg ([2]; 5 min, 5 min): 12%
- inhibition in vivo at 0.128 mg/kg ([2]; 5 min, 5 min): 68%
- inhibition in vivo at 0.032 mg/kg ([2]; 0.5 h, 30 min): 12%
- inhibition in vivo at 0.128 mg/kg ([2]; 0.5 h, 30 min): 68%
- inhibition in vivo at 0.032 mg/kg ([2]; 1 h, 60 min): 12%
- inhibition in vivo at 0.128 mg/kg ([2]; 1 h, 60 min): 61%
- inhibition in vivo at 0.032 mg/kg ([2]; 2 h, 120 min): 0%
- inhibition in vivo at 0.128 mg/kg ([2]; 2 h, 120 min): 61%
- inhibition in vivo at 0.032 mg/kg ([2]; 3 h, 180 min): 0%
- inhibition in vivo at 0.128 mg/kg ([2]; 3 h, 180 min): 45%
- inhibition in vivo at 0.128 mg/kg ([2]; 4 h, 240 min): 39%
- ED50 (printed in brackets, footnote **ED50) ([3]; carbachol (Doryl) 1:5 million): 9.3 µg (base)
- Duration, Mean ([3]; dose 10 mcg (base)): 25.5 ± 16.2 min
